Results as given in patent publication US5646184A, “Preparation for external application to the skin and novel benzoic acid derivatives” (Kao Corporation, priority 1993, dated 1997).

The molecules below were run on skin tissue containing sebaceous glands (sebum synthesis) (assay: Percent sebum synthesis inhibition in cultured hamster auricle skin tissue containing sebaceous glands (radioactive sodium acetate incorporation into lipids; method of Hall et al.)). Conditions: Mesocricetus auratus; concentration 8 μM; 3 hours culture; average of 6 animals.
Format: cell-based
Description: The following test was conducted to evaluate the sebum synthesis inhibitory action of the benzoic acid derivatives according to the present invention.
Measurement of sebum synthesis was made in accordance with the method of Hall, et al. (cf. Arch. Dermatol. Res., 275:1-7 (1983)). The skin tissue (diameter: 4 mm) containing sebaceous glands, taken from the auricle of a male hamster, was cultured in a Krebes-Ringer's phosphate-buffered solution containing radioactive sodium acetate for 3 hours. The tissue was hydrolyzed and extracted with hexane. The amount of the radioactive labelled lipids in the hexane fraction was measured with a liquid scintillation counter to obtain the amount of the synthesized sebum. The skin tissue obtained from the left auricle of a hamster was tested using a Krebes-Ringer's phosphate-buffered solution, while that obtained from the right one of the same hamster was tested using a Krebes-Ringer's phosphate-buffered solution containing each of the compounds shown in Tables 1 and 2, and a percent synthesis inhibition was obtained according to the following numerical formula.
Percent sebum synthesis inhibition (%) =
100 - (amount of sebum synthesized in the presence of
a test compound)/(amount of sebum synthesized in the
absence of a test compound) × 100
Molecule `CCCCC(CC)COc1ccc(O)c(C(=O)O)c1` (centres unmarked) [Compound 22, 5-(2-ethylhexyloxy)-2-hydroxybenzoic acid] has an inhibition at 8 µM of 84%.
`CCCCCCCCOc1ccc(C(=O)O)c(O)c1` [Compound 20, 2-hydroxy-4-n-octyloxybenzoic acid] showed an inhibition at 8 µM of 26%.
Work on `CCCCCCOc1ccc(C(=O)O)c(O)c1` [Compound 19, 4-n-hexyloxy-2-hydroxybenzoic acid] yielded an inhibition at 8 µM of 58%.
`O=C(O)c1cc(OCCC2CCCCC2)ccc1O` [Compound 24, 5-(2-cyclohexylethoxy)-2-hydroxybenzoic acid] showed an inhibition at 8 µM of 78%.
In the case of `CC(=O)Oc1cc(OCC2CCCCC2)ccc1C(=O)O` [Compound 29, 2-acetoxy-4-cyclohexylmethoxybenzoic acid], the inhibition at 8 µM is reported as 48%.
Work on `CC(CCOc1ccc(O)c(C(=O)O)c1)CC(C)(C)C` (centres unmarked) [Compound 23, 2-hydroxy-5-(3,5,5-trimethylhexyloxy)benzoic acid] yielded an inhibition at 8 µM of 83%.
`CCCCC(CC)COc1ccc(C(=O)NCCO)c(O)c1` (centres unmarked) [Compound 27, N-(2-Hydroxyethyl)-4-(2-ethylhexyloxy)-2-hydroxybenzamide] gave an inhibition at 8 µM of 15%.
With `CCCCCCOc1ccc(O)c(C(=O)O)c1` [Compound 25, 5-n-hexyloxy-2-hydroxybenzoic acid] the inhibition at 8 µM was 80%.
Molecule `CCCCCCCCCCOc1ccc(C(=O)O)c(O)c1` [Compound 21, 4-n-decyloxy-2-hydroxybenzoic acid] has an inhibition at 8 µM of 13%.

Same assay, conditions: Mesocricetus auratus; concentration 10 μM; 3 hours culture; average of 6 animals
`CC(C)=CCCC(C)CCOc1ccc(C(=O)O)c(O)c1` (centres unmarked) [Compound 18, 4-(3,7-dimethyl-6-octenyloxy)-2-hydroxybenzoic acid] gave an inhibition at 10 µM of 45%.
With `O=C(O)c1ccc(OCC2CCCCC2)cc1O` [Compound 16, 4-cyclohexylmethoxy-2-hydroxybenzoic acid] the inhibition at 10 µM was 44%.
For `CC(C)=CCC/C(C)=C/COc1ccc(C(=O)O)c(O)c1` [Compound 39, 4-{(2E)-3,7-dimethylocta-2,6-dienyloxy}-2-hydroxybenzoic acid], the inhibition at 10 µM was 52%.
`CC(C)=CCC/C(C)=C/COc1ccc(O)c(C(=O)O)c1` [Compound 40, 5-{(2E)-3,7-dimethylocta-2,6-dienyloxy}-2-hydroxybenzoic acid] gave an inhibition at 10 µM of 72%.
`O=C(O)c1ccc(OCCC2CCCCC2)cc1O` [Compound 17, 4-(2-cyclohexylethoxy)-2-hydroxybenzoic acid] was tested, and the inhibition at 10 µM was 57%.
`CCCCC(CC)COc1ccc(C(=O)O)c(O)c1` (centres unmarked) [Compound 14, 4-(2-ethylhexyloxy)-2-hydroxybenzoic acid] was tested, and the inhibition at 10 µM was 60%.
With `CC(C)=CCC/C(C)=C/COc1ccc(C(=O)NCCO)c(O)c1` [Compound 46, N-(2-hydroxyethyl)-4-{(2E)-3,7-dimethylocta-2,6-dienyloxy}-2-hydroxybenzamide] the inhibition at 10 µM was 28%.
`CC(CCOc1ccc(C(=O)O)c(O)c1)CC(C)(C)C` (centres unmarked) [Compound 15, 2-hydroxy-4-(3,5,5-trimethylhexyloxy)benzoic acid] showed an inhibition at 10 µM of 66%.

Same assay, conditions: Mesocricetus auratus; concentration 100 μM; 3 hours culture; average of 6 animals
With `CC(C)=CCC/C(C)=C/COc1ccc(C(=O)O)c(O)c1` [Compound 39, 4-{(2E)-3,7-dimethylocta-2,6-dienyloxy}-2-hydroxybenzoic acid] the inhibition at 100 µM was 93%.
In the case of `CC(C)=CCC/C(C)=C/CC/C(C)=C/COc1ccc(C(=O)O)c(O)c1` [Compound 43, 2-hydroxy-4-{(2E,6E)-3,7,11-trimethyl-2,6,10-dodecatrienyloxy}benzoic acid], the inhibition at 100 µM is reported as 47%.
Work on `CCCCC(CC)COc1ccc(C(=O)OC)c(O)c1` (centres unmarked) [Compound 1, methyl 4-(2-ethylhexyloxy)-2-hydroxybenzoate] yielded an inhibition at 100 µM of 32%.
Work on `CC(=O)Oc1cc(OC/C=C(\C)CCC=C(C)C)ccc1C(=O)O` [Compound 45, 2-acetoxy-4-{(2E)-3,7-dimethylocta-2,6-dienyloxy}benzoic acid] yielded an inhibition at 100 µM of 47%.
In the case of `CC(C)=CCC/C(C)=C/COc1cccc(C(=O)O)c1O` [Compound 41, 3-{(2E)-3,7-dimethylocta-2,6-dienyloxy}-2-hydroxybenzoic acid], the inhibition at 100 µM is reported as 91%.
Molecule `CC(C)=CCC/C(C)=C/COc1cc(O)cc(C(=O)O)c1` [Compound 42, 3-{(2E)-3,7-dimethylocta-2,6-dienyloxy}-5-hydroxybenzoic acid] has an inhibition at 100 µM of 70%.
